Data published in patent US5318984A, “Imidazoles for the treatment of atherosclerosis” (priority 1992, dated 1994).

Biological target: T1, Acyl-CoA: Cholesterol Acyltransferase (ACAT) (Rattus norvegicus, UniProt Q7TQM4)
T1 construct: Microsomes were obtained by differential centrifugation; from tissue; host or cells: liver microsomes of male Sprague Dawley rats
T1 sequence (Q7TQM4 1-524): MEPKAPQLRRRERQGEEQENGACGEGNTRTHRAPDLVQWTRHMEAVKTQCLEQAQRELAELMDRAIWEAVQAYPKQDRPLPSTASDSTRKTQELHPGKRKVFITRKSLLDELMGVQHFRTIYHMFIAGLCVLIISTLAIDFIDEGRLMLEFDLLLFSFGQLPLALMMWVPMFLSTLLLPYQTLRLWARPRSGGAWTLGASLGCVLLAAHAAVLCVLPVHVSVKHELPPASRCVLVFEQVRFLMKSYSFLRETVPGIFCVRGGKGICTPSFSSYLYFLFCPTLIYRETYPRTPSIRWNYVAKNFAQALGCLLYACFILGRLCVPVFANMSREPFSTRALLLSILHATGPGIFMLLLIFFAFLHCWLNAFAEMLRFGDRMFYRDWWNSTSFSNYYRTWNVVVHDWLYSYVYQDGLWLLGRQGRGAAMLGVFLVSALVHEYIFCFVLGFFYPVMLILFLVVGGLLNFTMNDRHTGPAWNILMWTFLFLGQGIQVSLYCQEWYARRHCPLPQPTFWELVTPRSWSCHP
Experiment: Inhibition of Acyl-CoA: Cholesterol Acyltransferase (ACAT) in Hepatic Microsomes
Assay type: biochemical, Sprague Dawley rats
Details: 14C-oleoyl-CoA, pH 7.4, 37° C., read-out: In Vitro ACAT IC50
Description: A. Assay of the Inhibition of Acyl-CoA: Cholesterol Acyltransferase (ACAT) in Hepatic Microsomes
The ability of the compounds to inhibit ACAT, the enzyme responsible for the intracellular synthesis of cholesteryl esters, was tested as follows. Male Sprague Dawley rats weighing 150-300 g, were fed rat chow ad libitum. The animals were fasted for twenty-four hours prior to being sacrificed by decapitation. The livers were perfused in situ with 50 ml of cold 0.25M sucrose, excised, and homogenized in three volumes of 0.1M phosphate buffer, pH 7.4, that contained 0.5 mM EDTA (ethylenediaminetetraacetic acid), 1.0 mM glutathione, 0.25M sucrose and […]. Microsomes were obtained by differential centrifugation; the supernatant from an initial spin at 15,000×g for 15 minutes was centrifuged at 105,000×g for 1 hour to pellet the microsomes. The microsomes were suspended in homogenization buffer, reisolated by centrifugation, and stored at -70° C. Microsomes were used within one month of preparation.
The control assay in a final volume of 200 μl consisted of 200 μg of microsomal protein, 75 μM ^14 C-oleoyl-CoA (10,000 dpm/nmol) in 0.1M phosphate, pH 7.4, that contained 1 mM glutathione. Compounds were added in 5 μl of DMSO (dimethyl sulfoxide) and additional controls were run with DMSO only. All components, except the oleoyl-CoA, were preincubated for 15 min. at 37° C. prior to the initiation of the reaction by the addition of oleoyl-CoA. The assay was terminated after 10 min by the addition of 4 ml of chloroform:methanol (2:1, v/v). 20,000 dpm of 3H-cholesteryl oleate and 10 μg of unlabeled cholesteryl oleate and oleic acid were added as an internal standard and carriers, respectively. After allowing 10 min. for lipid extraction, the samples were centrifuged at 1,000×g for 10 min. to separate the solvent layers. The chloroform layer containing the neutral lipids was spotted onto a Baker SI250-Pa silica gel TLC plate and the plate developed using a hexane: diethyl ether: acetic acid (170:30:1 v/v/v) mobile phase. The lipids were visualized by their interaction with iodine vapor and the cholesteryl ester spot was scraped into a scintillation vial and counted.

## CCCCCCCN(CCCCCCc1nc(-c2ccccc2)c(-c2ccccc2)[nH]1)C(=O)Nc1ccc(F)cc1F [Example 339, N'-(2,4-difluorophenyl)-N-[6-(4,5-diphenyl-1H-imidazol-2-yl)hexyl]-N-heptylurea]
  IC50: 280 nM

## CCCCCCCN(CCCCCSc1nc(-c2ccccc2)c(-c2ccccc2)[nH]1)C(=O)OC1CCCCC1 [Example 401, cyclohexyl [5-(4,5-diphenyl-1H-imidazol-2-ylthio)pentyl]heptylcarbamate]
  IC50: 50 nM

## CCCCCCCN(CCCCCSc1nc(-c2ccccc2)c(-c2ccccc2)[nH]1)C(=O)NC1CCCCC1 [Example 94, N'-cyclohexyl-N-[5-(4,5-diphenyl-1H-imidazol-2-ylthio)pentyl]-N-heptylurea]
  IC50: 10 nM

## CCCCCCCN(CCCCCSc1nc(-c2ccccc2)c(-c2ccccc2)[nH]1)C(=O)Cc1ccc(F)cc1F [Example 340, 2,4-difluoro-N-[(5-(4,5-diphenyl-1H-imidazol-2-ylthio)pentyl)]-N-heptylbenzeneacetamide]
  IC50: 25 nM

## CCCCCCCN(CCCCCNc1nc(-c2ccccc2)c(-c2ccccc2)[nH]1)C(=O)Nc1ccc(F)cc1F [Example 338, N' -(2,4-difluorophenyl)-N-[5-(4,5-diphenyl-1H-imidazol-2-ylamino)pentyl]-N-heptylurea]
  IC50: 3500 nM

## CC(C)NC(=O)N(CCCCCSc1nc(-c2ccccc2)c(-c2ccccc2)[nH]1)c1ccc(F)cc1F [Example 263]
  IC50: 40 nM

## CCCCCCCN(CCCCCSc1nc(-c2ccccc2)c(-c2ccccc2)[nH]1)C(=O)CC1CCCCC1 [Example 344]
  IC50: 30 nM

## CCCCCCCN(CCCCCSc1nc(-c2ccccc2)c(-c2ccccc2)[nH]1)C(=O)Nc1ccc(-c2ccccc2)cc1 [Example 192, N'-[(1,1'-biphenyl)-4-yl]-N-[5-(4,5-diphenyl-b 1H-imidazol-2-ylthio)pentyl]-N-heptylurea]
  IC50: 70 nM

## CCCCCCCN(CCCCCSc1nc(-c2ccccc2)c(-c2ccccc2)[nH]1)C(=O)Nc1c(C(C)C)cccc1C(C)C [Example 266]
  IC50: 230 nM

## CCCCCCCN(CCCCCSc1nc(-c2ccccc2)c(-c2ccccc2)[nH]1)C(=S)Nc1ccc(F)cc1F [Example 276, N'-(2,4-difluorophenyl]-N-[5-(4,5-diphenyl-1H-imidazol-2-ylthio)pentyl]-N-heptylthiourea]
  IC50: 58 nM

## CCCCCCCN(CCCCCSc1nc(-c2ccccc2)c(-c2ccccc2)[nH]1)C(=O)c1ccccc1 [Example 346]
  IC50: 50 nM

## CCCCCCCN(CCCCCSc1nc(-c2ccccc2)c(-c2ccccc2)[nH]1)C(=O)NCCC [Example 8, N-[5-(4,5-diphenyl-1H-imidazol-2-ylthio)pentyl]-N-heptyl-N'-propylurea]
  IC50: 10 nM

## CCCCCCCN(CCCCCSc1nc(-c2ccccc2)c(-c2ccccc2)[nH]1)C(=O)c1ccc(F)cc1F [Example 345]
  IC50: 60 nM

## CCCCCCCCNC(=O)N(CCCCCSc1nc(-c2ccccc2)c(-c2ccccc2)[nH]1)c1ccc(F)cc1F [Example 206, N-(2,4-difluorophenyl)-N-[5-(4,5-diphenyl-1H-imidazol-2-ylthio)pentyl]-N'-octylurea]
  IC50: 40 nM

## CCCCCCCN(CCCCCSc1nc(-c2ccccc2)c(-c2ccccc2)[nH]1)C(=O)NC(C)C [Example 105, N-[5-(4,5-diphenyl-1H-imidazol-2-ylthio)pentyl]-N-heptyl-N'-(1-methylethyl)urea]
  IC50: 20 nM

## CCCCCCCN(CCCCCSc1nc(-c2ccccc2)c(-c2ccccc2)[nH]1)C(=O)Oc1ccccc1 [Example 402, Phenyl [5-(4,5-diphenyl-1H-imidazol-2-ylthio)pentyl]heptylcarbamate]
  IC50: 20 nM

## CCCCCCCN(CCCCCSc1nc(-c2ccccc2)c(-c2ccccc2)[nH]1)C(=S)Nc1c(F)cc(F)cc1F [Example 298, N-[5-(4,5-diphenyl-1H-imidazol-2-ylthio)pentyl]N-heptyl-N'-(2,4,6-trifluorophenyl)thiourea]
  IC50: 30 nM

## CCCCCCCN(CCCCCSc1nc(-c2ccccc2)c(-c2ccccc2)n1C)C(=O)Nc1ccc(F)cc1F [Example 6, N'-(2,4-difluorophenyl)-N-heptyl-N-[5-(1-methyl-4,5-diphenyl-1H-imidazol-2-ylthio]pentyl]urea]
  IC50: 3600 nM

## CCCCCCCN(CCCCCS(=O)(=O)c1nc(-c2ccccc2)c(-c2ccccc2)[nH]1)C(=O)Nc1ccc(F)cc1F [Example 281, N'-(2,4-difluorophenyl)-N-[5-[(4,5-diphenyl-1H-imidazol-2-yl)sulfonyl]pentyl]-N-heptylurea]
  IC50: 16 nM

## CCCCCCCN(CCCCCCCCSc1nc(-c2ccccc2)c(-c2ccccc2)[nH]1)C(=O)Nc1ccc(F)cc1F [Example 3, N'-(2,4-difluorophenyl)-N-[8-(4,5-diphenyl-1H-imidazol-2-ylthio)octyl]-N-heptylurea]
  IC50: 8 nM

## CCCCCCCN(CCCCCSc1nc(-c2ccccc2)c(-c2ccccc2)[nH]1)C(=N)Nc1ccccc1 [Example 499, N-[5-(4,5-diphenyl-1H-imidazol-2-ylthio)pentyl]-N-heptyl-N'-phenylguanidin]
  IC50: 3160 nM

## CC(C)NC(=O)N(CCCCCSc1nc(-c2ccccc2)c(-c2ccccc2)[nH]1)c1ccccc1 [Example 261]
  IC50: 80 nM

## CCCCCCCN(CCCCC[S+]([O-])c1nc(-c2ccccc2)c(-c2ccccc2)[nH]1)C(=O)Nc1ccc(F)cc1F (stereo not drawn) [Example 278, N'-(2,4-difluorophenyl)-N-[5-(4,5-diphenyl-1H-imidazol-2-ylsulfinyl)pentyl]-N-heptylurea]
  IC50: 8 nM

## CCCN(CCCCCSc1nc(-c2ccccc2)c(-c2ccccc2)[nH]1)C(=O)Nc1ccc(F)cc1F [Example 190]
  IC50: 30 nM

## CCCCCCCN(CCCCCSc1nc(-c2ccccc2)c(-c2ccccc2)[nH]1)C(=O)Cc1ccc(-c2ccccc2)cc1 [Example 343, N-[5-(4,5-diphenyl-1H-imidazol-2-ylthio)pentyl]-N-heptyl[1,1'-biphenyl]-4-acetamide]
  IC50: 160 nM

## CCCCCCCCNC(=O)N(CCCCCSc1nc(-c2ccccc2)c(-c2ccccc2)[nH]1)c1c(F)cc(F)cc1F [Example 208]
  IC50: 20 nM

## CCCCCCCN(CCSc1nc(-c2ccccc2)c(-c2ccccc2)[nH]1)C(=O)Nc1ccc(F)cc1F [Example 189, N'-(2,4-difluorophenyl)-N-[2-(4,5-diphenyl-1H-imidazol-2-ylthio)ethyl]-N-heptylurea]
  IC50: 70 nM
